This passage reports Ki results from US11596639B2, “Substituted indole Mcl-1 inhibitors” (Vanderbilt University, priority 2016, dated 2023).

The test concerns the target Mcl-1 (Homo sapiens (Human), UniProt Q07820). The test can be described thus: Fluorescence polarization anisotropy (FPA) competition assay, FITC-Bak or FITC-Bim BH3 peptide. The format is binding. Conditions: read-out: Ki for Inhibition of Mcl-1 by FPA assay. Background: Polarisation of emitted light reports the rotation of a fluorescent probe.

Chain of Mcl-1 (Q07820 172-327): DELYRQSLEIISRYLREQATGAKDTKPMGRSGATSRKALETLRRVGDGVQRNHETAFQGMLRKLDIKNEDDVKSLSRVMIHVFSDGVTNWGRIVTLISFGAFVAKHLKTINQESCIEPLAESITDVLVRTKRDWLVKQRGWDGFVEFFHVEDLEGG

Turning to `Cc1cc(OCCCc2c3n(c4c(-c5c(C)nn(C)c5C)c(Cl)ccc24)CCCN(Cc2cc(C(=O)O)cc(N4CCN(C(=O)N(C)C)CC4)n2)C3=O)cc(C)c1Cl` [Example 34, 2-((8-Chloro-11-(3-(4-chloro-3,5-dimethylphenoxy)propyl)-1-oxo-7-(1,3,5-trimethyl-1H-pyrazol-4-yl)-4,5-dihydro-1H-[1,4]diazepino[1,2-a]indol-2(3H)-yl)methyl)-6-(4-(dimethylcarbamoyl)piperazin-1-yl)isonicotinic acid], the Ki (as a rule, a measure of affinity in units of concentration, obtained from inhibition or displacement) worked out at 12 nM.

With `Cc1cc(OCCCc2c3n(c4c(-c5c(C)nn(C)c5C)c(Cl)ccc24)[C@H](C)CN(c2ccc(C(=O)O)c(Cl)c2)C3=O)cc(C)c1Cl` [Example 35, (R)-2-chloro-4-(7-chloro-10-(3-(4-chloro-3,5-dimethylphenoxy)propyl)-4-methyl-1-oxo-6-(1,3,5-trimethyl-1H-pyrazol-4-yl)-3,4-dihydropyrazino[1,2-a]indol-2(1H)-yl)benzoic acid], the Ki came to 1.5 nM.

As to `Cc1cc(OCCCc2c3n(c4c(-c5c(C)nn(C)c5C)c(Cl)ccc24)CCCN(Cc2cc(C(=O)O)cc(N4CCN(S(=O)(=O)CCc5ccccc5)CC4)n2)C3=O)cc(C)c1Cl` [Example 38, 2-((8-Chloro-11-(3-(4-chloro-3,5-dimethylphenoxy)propyl)-1-oxo-7-(1,3,5-trimethyl-1H-pyrazol-4-yl)-4,5-dihydro-1H-[1,4]diazepino[1,2-a]indol-2(3H)-yl)methyl)-6-(4-(phenethylsulfonyl)piperazin-1-yl)isonicotinic acid], the inhibition constant Ki worked out at 62 nM.

Consider `Cc1cc(OCCCc2c3n(c4c(-c5c(C)nn(C)c5C)c(Cl)ccc24)CCCN(c2cc(C(=O)O)cc4c2cnn4CCN(C)C)C3=O)cc(C)c1Cl` [Example 40, 4-[8-Chloro-11-[3-(4-chloro-3,5-dimethyl-phenoxy)propyl]-1-oxo-7-(1,3,5-trimethylpyrazol-4-yl)-4,5-dihydro-3H-[1,4]diazepino[1,2-a]indol-2-yl]-1-[2-(dimethylamino)ethyl]indazole-6-carboxylic acid], for which the Ki amounted to 3.9 nM.

As to `Cc1cc(OCCCc2c3n(c4c(-c5c(C)nn(C)c5C)c(Cl)ccc24)CCCN(c2cc(C(=O)O)c4cn(CCN(C)C)nc4c2)C3=O)cc(C)c1Cl` [Example 42, 6-[8-chloro-11-[3-(4-chloro-3,5-dimethyl-phenoxy)propyl]-1-oxo-7-(1,3,5-trimethylpyrazol-4-yl)-4,5-dihydro-3H-[1,4]diazepino[1,2-a]indol-2-yl]-2-[2-(dimethylamino)ethyl]indazole-4-carboxylic acid], the Ki worked out at 8 nM.

Regarding `Cc1cc(OCCCc2c3n(c4c(-c5c(C)nn(C)c5C)c(Cl)ccc24)CCCN(c2ccc4c(c2)CCCN4CC(=O)O)C3=O)cc(C)c1Cl` [Example 46, 2-(6-(8-Chloro-11-(3-(4-chloro-3,5-dimethylphenoxy)propyl)-1-oxo-7-(1,3,5-trimethyl-1H-pyrazol-4-yl)-4,5-dihydro-1H-[1,4]diazepino[1,2-a]indol-2(3H)-yl)-3,4-dihydroquinolin-1(2H)-yl)acetic acid], the Ki came to 26 nM.

On to `Cc1cc(OCCCc2c3n(c4c(-c5c(C)nn(C)c5C)c(Cl)ccc24)CCCN(Cc2cc(C(=O)O)cc(N4CCN(S(=O)(=O)C5CC5)CC4)n2)C3=O)cc(C)c1Cl` [Example 47, 2-((8-Chloro-11-(3-(4-chloro-3,5-dimethylphenoxy)propyl)-1-oxo-7-(1,3,5-trimethyl-1H-pyrazol-4-yl)-4,5-dihydro-1H-[1,4]diazepino[1,2-a]indol-2(3H)-yl)methyl)-6-(4-(cyclopropylsulfonyl)piperazin-1-yl)isonicotinic acid], for which the inhibition constant Ki came to 19 nM.

With `COC(=O)c1cc2c(c(N3CCCn4c(c(CCCOc5cc(C)c(Cl)c(C)c5)c5ccc(Cl)c(-c6c(C)nn(C)c6C)c54)C3=O)c1)OCCO2` [Example 60, Methyl 8-(8-chloro-11-(3-(4-chloro-3,5-dimethylphenoxy)propyl)-1-oxo-7-(1,3,5-trimethyl-1H-pyrazol-4-yl)-4,5-dihydro-1H-[1,4]diazepino[1,2-a]indol-2(3H)-yl)-2,3-dihydrobenzo[b][1,4]dioxine-6-carboxylate], the inhibition constant Ki was less than 1 nM.

As for `Cc1cc(OCCCc2c3n(c4c(-c5c(C)nn(C)c5C)c(Cl)ccc24)CCCN(C2=CNC(C(=O)O)=C(O)N2)C3=O)cc(C)c1Cl` [Example 73, 5-(8-Chloro-11-(3-(4-chloro-3,5-dimethylphenoxy)propyl)-1-oxo-7-(1,3,5-trimethyl-1H-pyrazol-4-yl)-4,5-dihydro-1H-[1,4]diazepino[1,2-a]indol-2(3H)-yl)-3-hydroxy-1,4-dihydropyrazine-2-carboxylic acid], the Ki was less than 1 nM.

`Cc1cc(OCCCc2c3n(c4c(-c5c(C)nn(C)c5C)c(Cl)ccc24)CCCN(c2cc(C(=O)O)c4c(cnn4C)c2)C3=O)cc(C)c1Cl` [Example 85, 5-[8-Chloro-11-[3-(4-chloro-3,5-dimethyl-phenoxy)propyl]-1-oxo-7-(1,3,5-trimethylpyrazol-4-yl)-4,5-dihydro-3H-[1,4]diazepino[1,2-a]indol-2-yl]-1-methyl-indazole-7-carboxylic acid]: the Ki is 1.5 nM.

As to `Cc1cc(OCCCc2c3n(c4c(-c5c(C)cccc5C)c(Cl)ccc24)CCCNC3=O)cc(C)c1Cl` [Example 86, 8-Chloro-11-(3-(4-chloro-3,5-dimethylphenoxy)propyl)-7-(2,6-dimethylphenyl)-2,3,4,5-tetrahydro-1H-[1,4]diazepino[1,2-a]indol-1-one], the Ki worked out at 47 nM.

On to `CCn1ncc2c(C(=O)O)cc(N3C[C@@H](C)n4c(c(CCCOc5cc(C)c(Cl)c(C)c5)c5ccc(Cl)c(-c6c(C)nn(C)c6C)c54)C3=O)cc21` [Example 87, (R)-6-(7-chloro-10-(3-(4-chloro-3,5-dimethylphenoxy)propyl)-4-methyl-1-oxo-6-(1,3,5-trimethyl-1H-pyrazol-4-yl)-3,4-dihydropyrazino[1,2-a]indol-2(1H)-yl)-1-ethyl-1H-indazole-4-carboxylic acid], for which the Ki was less than 1 nM.

Consider `CCN1C(=O)COc2cc(C(=O)O)cc(N3C[C@@H](C)n4c(c(CCCOc5cc(C)c(Cl)c(C)c5)c5ccc(Cl)c(-c6c(C)nn(C)c6C)c54)C3=O)c21` [Example 90, (R)-5-(7-chloro-10-(3-(4-chloro-3,5-dimethylphenoxy)propyl)-4-methyl-1-oxo-6-(1,3,5-trimethyl-1H-pyrazol-4-yl)-3,4-dihydropyrazino[1,2-a]indol-2(1H)-yl)-4-ethyl-3-oxo-3,4-dihydro-2H-benzo[b][1,4]oxazine-7-carboxylic acid], for which the Ki amounted to 8.7 nM.

With `Cc1cc(OCCCc2c3n(c4c(-c5c(C)cccc5C)c(Cl)ccc24)CCCN(c2cc(C(=O)O)c4ccn(C)c4c2)C3=O)cc(C)c1Cl` [Example 91, 6-[8-Chloro-11-[3-(4-chloro-3,5-dimethyl-phenoxy)propyl]-7-(2,6-dimethylphenyl)-1-oxo-4,5-dihydro-3H-[1,4]diazepino[1,2-a]indol-2-yl]-1-methyl-indole-4-carboxylic acid], the Ki worked out at 7.3 nM.

On to `Cc1cc(OCCCc2c3n(c4c(-c5c(C)nn(C)c5C)c(Cl)ccc24)CCCN(c2cc(C(=O)O)c4cnn(CCO)c4c2)C3=O)cc(C)c1Cl` [Example 107, 6-[8-Chloro-11-[3-(4-chloro-3,5-dimethyl-phenoxy)propyl]-1-oxo-7-(1,3,5-trimethylpyrazol-4-yl)-4,5-dihydro-3H-[1,4]diazepino[1,2-a]indol-2-yl]-1-(2-hydroxyethyl)indazole-4-carboxylic acid], for which the inhibition constant Ki was less than 1 nM.

For the compound `Cc1cc(OCCCc2c3n(c4c(-c5c(C)nn(C)c5C)c(Cl)ccc24)[C@H](C)CN(c2ccc4c(C(=O)O)nn(C)c4c2)C3=O)cc(C)c1Cl` [Example 121, (R)-6-(7-Chloro-10-(3-(4-chloro-3,5-dimethylphenoxy)propyl)-4-methyl-1-oxo-6-(1,3,5-trimethyl-1H-pyrazol-4-yl)-3,4-dihydropyrazino[1,2-a]indol-2(1H)-yl)-1-methyl-1H-indazole-3-carboxylic acid], the inhibition constant Ki stood at 1.9 nM.

As to `Cc1cc(OCCCc2c3n(c4c(-c5c(C)nn(C)c5C)c(Cl)ccc24)[C@H](C)CN(c2cccc4c2c(C(=O)O)nn4C)C3=O)cc(C)c1Cl` [Example 127, 4-[(4R)-7-chloro-10-[3-(4-chloro-3,5-dimethyl-phenoxy)propyl]-4-methyl-1-oxo-6-(1,3,5-trimethylpyrazol-4-yl)-3,4-dihydropyrazino[1,2-a]indol-2-yl]-1-methyl-indazole-3-carboxylic acid], the inhibitory constant (Ki) was less than 1 nM.

Regarding `Cc1cc(OCCCc2c3n(c4c(-c5c(C)nn(C)c5C)c(Cl)ccc24)[C@H](C)CN(c2nc4cc(C(=O)O)ccn4n2)C3=O)cc(C)c1Cl` [Example 135, (R)-2-(7-chloro-10-(3-(4-chloro-3,5-dimethylphenoxy)propyl)-4-methyl-1-oxo-6-(1,3,5-trimethyl-1H-pyrazol-4-yl)-3,4-dihydropyrazino[1,2-a]indol-2(1H)-yl)-[1,2,4]triazolo[1,5-a]pyridine-7-carboxylic acid], the Ki is less than 1 nM.

For `Cc1cc(OCCCc2c3n(c4c(-c5c(C)nn(CC(=O)O)c5C)c(Cl)ccc24)CCCN(c2ccccc2)C3=O)cc(C)c1Cl` [Example 136, 2-(4-(8-Chloro-11-(3-(4-chloro-3,5-dimethylphenoxy)propyl)-1-oxo-2-phenyl-2,3,4,5-tetrahydro-1H-[1,4]diazepino[1,2-a]indol-7-yl)-3,5-dimethyl-1H-pyrazol-1-yl)acetic acid], the Ki is less than 1 nM.

As for `Cc1cc(OCCCc2c3n(c4c(-c5c(C)nn(C)c5C)c(Cl)ccc24)[C@H](C)CN(c2ccc4nc(C(=O)O)cn4c2)C3=O)cc(C)c1Cl` [Example 139, (R)-6-(7-chloro-10-(3-(4-chloro-3,5-dimethylphenoxy)propyl)-4-methyl-1-oxo-6-(1,3,5-trimethyl-1H-pyrazol-4-yl)-3,4-dihydropyrazino[1,2-a]indol-2(1H)-yl)imidazo[1,2-a]pyridine-2-carboxylic acid], the Ki is 1.1 nM.
